Source: PMC6430017, “Structural and chemical insights into the covalent-allosteric inhibition of the protein kinase Akt” (Chemical Science, 2019)

Legend:
Assay in all cases: SelectScreen Z'LYTE kinase profiling
Format in all cases: biochemical
Conditions in all cases: ATP at apparent KM
MET (cMet) = MET (cMet) (Homo sapiens, UniProt P08581)
Experimental: (§1) protein kinases at a compound concentration of 1 µM. Measurements were performed in duplicates
(§2) and at the particular apparent ATP KM of each individual kinase employing the activity based Z’LYTE®
(§3) kinase assay of the SelectScreen® Kinase Profiling Services (ThermoFisher Scientific).
(§4) kinases at a compound concentration of 1 µM. Measurements were performed in duplicates and at
(§5) the particular apparent ATP KM of each individual kinase employing the activity based Z’LYTE® kinase
(§6) assay of the SelectScreen® Kinase Profiling Services (ThermoFisher Scientific).

PRKCZ (PKC zeta) = biological target: T1, PRKCZ (PKC zeta) (Homo sapiens, UniProt Q05513)
T1 sequence (Q05513 1-592): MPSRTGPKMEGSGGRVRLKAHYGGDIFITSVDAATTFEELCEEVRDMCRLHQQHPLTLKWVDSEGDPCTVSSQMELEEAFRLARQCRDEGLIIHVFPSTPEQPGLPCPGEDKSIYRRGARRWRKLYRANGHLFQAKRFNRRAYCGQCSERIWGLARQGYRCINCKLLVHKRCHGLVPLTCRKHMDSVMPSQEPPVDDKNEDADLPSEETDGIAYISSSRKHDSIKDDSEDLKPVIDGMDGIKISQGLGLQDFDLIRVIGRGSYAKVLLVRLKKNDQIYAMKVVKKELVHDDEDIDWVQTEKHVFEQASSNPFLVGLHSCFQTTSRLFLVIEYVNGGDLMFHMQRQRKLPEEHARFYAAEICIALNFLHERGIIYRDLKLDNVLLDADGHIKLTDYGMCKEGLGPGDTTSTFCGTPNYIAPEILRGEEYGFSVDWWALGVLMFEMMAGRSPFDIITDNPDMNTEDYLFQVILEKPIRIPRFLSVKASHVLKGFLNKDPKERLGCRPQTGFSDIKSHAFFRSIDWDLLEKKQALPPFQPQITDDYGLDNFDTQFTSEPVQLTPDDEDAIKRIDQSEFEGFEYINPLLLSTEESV
Experimental: as §1, §2, §3, §4, §5, §6

CHEK2 (CHK2) = CHEK2 (CHK2) (Homo sapiens, UniProt O96017)
Experimental: as §1, §2, §3, §4, §5, §6

GSK3B (GSK3 beta) = GSK3B (GSK3 beta) (Homo sapiens, UniProt P49841)
Experimental: as §1, §2, §3, §4, §5, §6

NEK1 = biological target: T2, NEK1 (Homo sapiens, UniProt Q96PY6)
T2 sequence (Q96PY6 1-1258): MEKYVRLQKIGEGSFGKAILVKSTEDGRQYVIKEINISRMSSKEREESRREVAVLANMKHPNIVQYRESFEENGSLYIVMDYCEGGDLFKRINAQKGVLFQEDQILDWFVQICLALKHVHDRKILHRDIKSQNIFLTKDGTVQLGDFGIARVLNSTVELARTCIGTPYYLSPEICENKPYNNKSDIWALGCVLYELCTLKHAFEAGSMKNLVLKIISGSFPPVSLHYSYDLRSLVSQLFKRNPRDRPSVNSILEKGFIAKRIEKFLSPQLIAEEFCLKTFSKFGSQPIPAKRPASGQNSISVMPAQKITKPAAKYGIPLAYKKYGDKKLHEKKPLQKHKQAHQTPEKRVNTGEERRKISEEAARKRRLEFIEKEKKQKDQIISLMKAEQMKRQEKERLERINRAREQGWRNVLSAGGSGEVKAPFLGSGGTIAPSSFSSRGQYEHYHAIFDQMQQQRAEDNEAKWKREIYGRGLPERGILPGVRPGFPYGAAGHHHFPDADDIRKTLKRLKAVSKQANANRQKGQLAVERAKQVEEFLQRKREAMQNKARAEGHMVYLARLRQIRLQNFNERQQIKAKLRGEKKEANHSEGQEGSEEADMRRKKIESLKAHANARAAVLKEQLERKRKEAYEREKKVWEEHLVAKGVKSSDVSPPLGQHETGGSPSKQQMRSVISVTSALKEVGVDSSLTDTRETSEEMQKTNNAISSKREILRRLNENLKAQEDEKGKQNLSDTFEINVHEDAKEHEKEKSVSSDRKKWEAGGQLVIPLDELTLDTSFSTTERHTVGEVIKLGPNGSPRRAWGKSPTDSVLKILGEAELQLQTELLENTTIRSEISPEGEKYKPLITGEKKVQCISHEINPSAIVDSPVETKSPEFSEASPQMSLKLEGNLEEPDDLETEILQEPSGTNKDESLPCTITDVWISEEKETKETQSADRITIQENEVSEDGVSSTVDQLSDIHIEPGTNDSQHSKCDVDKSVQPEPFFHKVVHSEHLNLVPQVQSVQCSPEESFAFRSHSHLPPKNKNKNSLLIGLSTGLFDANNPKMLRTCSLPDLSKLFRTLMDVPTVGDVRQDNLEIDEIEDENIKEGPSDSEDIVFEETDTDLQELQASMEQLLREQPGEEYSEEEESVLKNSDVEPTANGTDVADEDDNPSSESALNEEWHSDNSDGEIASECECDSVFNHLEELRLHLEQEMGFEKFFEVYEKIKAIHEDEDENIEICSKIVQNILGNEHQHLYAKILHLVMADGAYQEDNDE
Experimental: as §1, §2, §3, §4, §5, §6

PRKCB1 (PKC beta I) = PRKCB1 (PKC beta I) (Homo sapiens, UniProt P05771)
Experimental: as §1, §2, §3, §4, §5, §6

PAK1 = PAK1 (Homo sapiens, UniProt Q13153)
Experimental: as §1, §2, §3, §4, §5, §6

DCAMKL2 (DCK2) = biological target: T3, DCAMKL2 (DCK2) (Homo sapiens, UniProt Q8N568)
T3 sequence (Q8N568 1-766): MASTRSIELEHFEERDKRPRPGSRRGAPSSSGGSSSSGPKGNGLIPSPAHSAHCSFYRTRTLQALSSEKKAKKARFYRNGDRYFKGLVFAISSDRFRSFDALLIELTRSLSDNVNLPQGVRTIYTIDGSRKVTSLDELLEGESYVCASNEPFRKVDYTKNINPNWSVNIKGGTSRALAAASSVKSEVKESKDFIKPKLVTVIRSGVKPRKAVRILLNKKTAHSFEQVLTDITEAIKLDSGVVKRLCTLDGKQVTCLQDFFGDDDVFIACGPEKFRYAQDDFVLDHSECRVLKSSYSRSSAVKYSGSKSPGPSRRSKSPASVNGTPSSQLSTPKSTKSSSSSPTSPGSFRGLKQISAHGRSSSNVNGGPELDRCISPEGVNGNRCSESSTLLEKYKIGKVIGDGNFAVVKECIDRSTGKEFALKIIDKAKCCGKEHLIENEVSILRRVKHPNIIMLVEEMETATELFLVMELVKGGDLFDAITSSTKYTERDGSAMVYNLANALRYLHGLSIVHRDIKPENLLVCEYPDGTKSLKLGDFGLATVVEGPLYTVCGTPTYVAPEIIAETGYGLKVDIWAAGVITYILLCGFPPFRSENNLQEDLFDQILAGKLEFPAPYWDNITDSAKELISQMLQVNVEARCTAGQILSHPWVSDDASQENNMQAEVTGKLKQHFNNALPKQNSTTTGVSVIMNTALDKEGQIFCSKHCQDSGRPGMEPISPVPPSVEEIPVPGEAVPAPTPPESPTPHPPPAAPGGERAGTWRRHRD
Experimental: as §1, §2, §3, §4, §5, §6

Sequence of PAK1 (Q13153 whole entry): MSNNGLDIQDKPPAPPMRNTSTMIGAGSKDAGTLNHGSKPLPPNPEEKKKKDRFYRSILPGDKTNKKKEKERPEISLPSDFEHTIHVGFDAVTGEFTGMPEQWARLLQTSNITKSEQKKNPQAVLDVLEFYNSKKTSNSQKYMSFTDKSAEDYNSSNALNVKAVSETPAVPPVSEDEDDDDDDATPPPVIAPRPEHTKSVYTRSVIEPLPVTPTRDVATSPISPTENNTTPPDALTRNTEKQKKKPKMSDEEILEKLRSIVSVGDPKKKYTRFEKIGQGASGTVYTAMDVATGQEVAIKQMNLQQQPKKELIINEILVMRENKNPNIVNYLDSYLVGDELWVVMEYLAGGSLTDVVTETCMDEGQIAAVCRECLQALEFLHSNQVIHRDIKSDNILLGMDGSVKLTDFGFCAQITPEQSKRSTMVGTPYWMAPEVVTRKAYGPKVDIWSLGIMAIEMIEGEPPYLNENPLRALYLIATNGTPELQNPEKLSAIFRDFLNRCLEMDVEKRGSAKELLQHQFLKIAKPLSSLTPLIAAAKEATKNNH
Sequence of MET (cMet) (P08581 25-1390): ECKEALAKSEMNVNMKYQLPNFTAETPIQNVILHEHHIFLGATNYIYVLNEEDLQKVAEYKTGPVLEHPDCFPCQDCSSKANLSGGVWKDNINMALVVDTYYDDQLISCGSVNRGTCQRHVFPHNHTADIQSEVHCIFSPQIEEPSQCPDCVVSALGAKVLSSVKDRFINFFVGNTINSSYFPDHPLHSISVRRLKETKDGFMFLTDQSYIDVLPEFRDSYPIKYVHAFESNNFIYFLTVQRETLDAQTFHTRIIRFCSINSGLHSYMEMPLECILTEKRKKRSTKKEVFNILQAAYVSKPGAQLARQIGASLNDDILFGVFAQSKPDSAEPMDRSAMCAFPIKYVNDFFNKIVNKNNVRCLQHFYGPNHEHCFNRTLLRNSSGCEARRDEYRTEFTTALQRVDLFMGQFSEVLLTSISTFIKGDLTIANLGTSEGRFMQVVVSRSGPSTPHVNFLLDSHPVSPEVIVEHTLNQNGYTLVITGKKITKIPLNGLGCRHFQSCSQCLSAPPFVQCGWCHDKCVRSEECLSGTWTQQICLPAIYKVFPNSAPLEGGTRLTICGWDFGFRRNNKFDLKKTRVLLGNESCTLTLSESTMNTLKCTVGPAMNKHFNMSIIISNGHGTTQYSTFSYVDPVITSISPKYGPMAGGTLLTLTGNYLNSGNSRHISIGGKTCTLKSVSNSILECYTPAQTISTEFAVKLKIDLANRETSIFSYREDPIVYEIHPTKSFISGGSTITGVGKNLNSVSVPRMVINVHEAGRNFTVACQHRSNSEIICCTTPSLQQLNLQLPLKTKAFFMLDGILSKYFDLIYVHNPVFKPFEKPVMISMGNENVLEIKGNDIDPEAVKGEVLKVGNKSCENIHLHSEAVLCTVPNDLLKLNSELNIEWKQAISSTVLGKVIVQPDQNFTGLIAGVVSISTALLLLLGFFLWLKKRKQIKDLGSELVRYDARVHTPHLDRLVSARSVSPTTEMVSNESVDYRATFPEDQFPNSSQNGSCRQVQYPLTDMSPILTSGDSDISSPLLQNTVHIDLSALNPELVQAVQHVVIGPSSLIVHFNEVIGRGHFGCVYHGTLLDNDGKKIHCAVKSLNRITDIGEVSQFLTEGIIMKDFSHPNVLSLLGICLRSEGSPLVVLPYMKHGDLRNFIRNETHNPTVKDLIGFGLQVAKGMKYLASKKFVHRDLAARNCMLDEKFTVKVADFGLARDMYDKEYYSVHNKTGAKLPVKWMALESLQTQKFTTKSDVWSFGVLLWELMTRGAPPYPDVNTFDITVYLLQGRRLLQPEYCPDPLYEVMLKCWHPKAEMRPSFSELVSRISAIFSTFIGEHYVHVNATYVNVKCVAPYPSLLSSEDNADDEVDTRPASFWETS
Sequence of CHEK2 (CHK2) (O96017 whole entry): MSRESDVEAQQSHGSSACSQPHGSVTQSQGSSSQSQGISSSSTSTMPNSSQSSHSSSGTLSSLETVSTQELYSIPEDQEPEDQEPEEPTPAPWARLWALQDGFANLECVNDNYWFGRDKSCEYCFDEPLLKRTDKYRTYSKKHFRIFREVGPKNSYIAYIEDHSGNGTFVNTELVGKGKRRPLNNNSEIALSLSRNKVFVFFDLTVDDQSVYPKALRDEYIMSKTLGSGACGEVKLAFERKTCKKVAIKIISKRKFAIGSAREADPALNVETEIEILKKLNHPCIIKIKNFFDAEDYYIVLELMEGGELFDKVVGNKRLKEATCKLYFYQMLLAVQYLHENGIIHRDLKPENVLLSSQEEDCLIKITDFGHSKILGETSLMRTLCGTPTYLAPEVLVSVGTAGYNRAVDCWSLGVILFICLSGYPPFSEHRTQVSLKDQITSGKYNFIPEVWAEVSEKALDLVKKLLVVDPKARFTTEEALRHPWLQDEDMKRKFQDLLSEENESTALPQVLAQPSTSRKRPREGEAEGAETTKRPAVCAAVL
Sequence of PRKCB1 (PKC beta I) (P05771 whole entry): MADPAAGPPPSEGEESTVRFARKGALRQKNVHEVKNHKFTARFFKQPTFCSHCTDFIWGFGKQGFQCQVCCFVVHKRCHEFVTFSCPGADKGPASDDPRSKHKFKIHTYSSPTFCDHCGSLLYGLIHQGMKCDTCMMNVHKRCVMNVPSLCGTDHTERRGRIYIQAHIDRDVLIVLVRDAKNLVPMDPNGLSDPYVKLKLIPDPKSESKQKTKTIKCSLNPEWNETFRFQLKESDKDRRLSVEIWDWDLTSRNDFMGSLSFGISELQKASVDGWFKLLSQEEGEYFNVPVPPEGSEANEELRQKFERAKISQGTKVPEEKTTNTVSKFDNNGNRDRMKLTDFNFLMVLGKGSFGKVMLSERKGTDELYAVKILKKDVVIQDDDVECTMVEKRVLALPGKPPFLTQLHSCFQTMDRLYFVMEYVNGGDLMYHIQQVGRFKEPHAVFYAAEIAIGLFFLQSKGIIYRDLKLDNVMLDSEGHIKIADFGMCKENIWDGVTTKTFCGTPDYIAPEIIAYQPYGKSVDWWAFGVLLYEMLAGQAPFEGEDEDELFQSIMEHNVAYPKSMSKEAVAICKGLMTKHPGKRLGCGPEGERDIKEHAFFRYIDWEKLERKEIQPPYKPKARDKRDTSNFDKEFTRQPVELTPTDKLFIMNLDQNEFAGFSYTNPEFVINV
Sequence of GSK3B (GSK3 beta) (P49841 whole entry): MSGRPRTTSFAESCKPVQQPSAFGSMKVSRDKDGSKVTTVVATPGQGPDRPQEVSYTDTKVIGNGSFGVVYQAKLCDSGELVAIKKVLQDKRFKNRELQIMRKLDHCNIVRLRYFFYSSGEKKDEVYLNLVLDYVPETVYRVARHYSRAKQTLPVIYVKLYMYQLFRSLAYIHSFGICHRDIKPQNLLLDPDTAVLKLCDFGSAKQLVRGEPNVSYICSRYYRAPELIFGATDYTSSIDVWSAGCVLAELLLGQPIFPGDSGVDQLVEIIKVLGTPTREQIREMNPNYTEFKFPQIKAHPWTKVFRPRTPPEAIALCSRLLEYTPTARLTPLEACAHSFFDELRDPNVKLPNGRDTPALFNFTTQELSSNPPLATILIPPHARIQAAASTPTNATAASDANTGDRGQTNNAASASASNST

Structure (SMILES) | inhibition at 1 µM (MET (cMet)) [%] | inhibition at 1 µM (PRKCZ (PKC zeta)) [%] | inhibition at 1 µM (CHEK2 (CHK2)) [%] | inhibition at 1 µM (GSK3B (GSK3 beta)) [%] | inhibition at 1 µM (NEK1) [%] | inhibition at 1 µM (PRKCB1 (PKC beta I)) [%] | inhibition at 1 µM (PAK1) [%] | inhibition at 1 µM (DCAMKL2 (DCK2)) [%]
C=CC(=O)Nc1cc(NC(=O)NC2CCN(Cc3ccc(-c4nc5cc[nH]c(=O)c5cc4-c4ccccc4)cc3)CC2)ccc1Cl [compound 27] | 4 | -14 | 1 | 18 | -1 | 6 | -2 | -1
C=CC(=O)Nc1cccc(C(=O)NC2CCN(Cc3ccc(-c4nc5cc[nH]c(=O)c5cc4-c4ccccc4)cc3)CC2)c1 [30b] | 0 | -4 | -12 | 29 | -2 | 6 | 4 | 3
C=CC(=O)Nc1ccc2c(c1)n(C1CCN(Cc3ccc(-c4nc5cc[nH]c(=O)c5cc4-c4ccccc4)cc3)CC1)c(=O)n2C [24b] | 1 | -3 | -13 | 22 | -7 | 7 | 12 | -1
